Test results taken from patent US20250154686A1, “COMPOUND LIBRARY” (CHUGAI SEIYAKU KABUSHIKI KAISHA, priority 2021, published 2025).

Molecular target: T1, Bcl-2 protein (Recombinant Human Bcl-2 Protein) (Homo sapiens, UniProt P10415)
T1 construct: purchased Novus Biologicals NBP2-34889
Assay: AS-MS evaluation of binding of the Example 4 mixture library (1200 compounds/well) to Bcl-2, ASMS ratio (%)
Conditions: AS-MS, Example 4 mixture library; for ASMS ratio (%) n = 1: Bcl-2, replicate n = 1; for ASMS ratio (%) n = 2: Bcl-2, replicate n = 2
Outline: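 Recombinant human Bcl-2 at 20 μM final was exposed to a 1200-member compound pool (20 nM per compound) in pH 7.4 Tris-HCl buffer containing NaCl, Tween-20 and DTT. After 1 h at 23 °C, protein–ligand complexes passed SEC spin columns; LC/MS signals were compared with protein-free standard and blank samples to give ASMS ratio.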

T1 sequence (P10415 whole entry): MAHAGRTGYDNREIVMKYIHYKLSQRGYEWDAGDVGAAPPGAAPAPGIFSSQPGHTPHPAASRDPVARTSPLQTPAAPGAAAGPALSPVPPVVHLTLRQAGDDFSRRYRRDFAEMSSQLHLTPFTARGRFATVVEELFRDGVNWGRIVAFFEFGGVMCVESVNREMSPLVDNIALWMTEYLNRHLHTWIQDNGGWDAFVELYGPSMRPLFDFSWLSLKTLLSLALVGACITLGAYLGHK

CCOc1cncc(-c2csc(CN3CCN(c4ccc(C(=O)NS(=O)(=O)CCC(F)(F)F)cc4)CC3)c2)c1 [Compound B2N068-01, 4-[4-[[4-(5-Ethoxypyridin-3-yl)thiophen-2-yl]methyl]piperazin-1-yl]-N-(3,3,3-trifluoropropylsulfonyl)benzamide]
ASMS ratio (%) n = 1: 0.0% | ASMS ratio (%) n = 2: 0.5%

CCOc1cccc(C#Cc2ccccc2CN2CCN(c3ccc(C(=O)NS(=O)(=O)CCC(F)(F)F)cc3)CC2)c1 [Compound B2N069-01, 4-[4-[[2-[2-(3-Ethoxyphenyl)ethynyl]phenyl]methyl]piperazin-1-yl]-N-(3,3,3-trifluoropropylsulfonyl)benzamide]
ASMS ratio (%) n = 1: −1.8% | ASMS ratio (%) n = 2: −1.5%

CCOc1cncc(C#Cc2ccccc2CN2CCN(c3ccc(C(=O)NS(=O)(=O)CCC(F)(F)F)cc3)CC2)c1 [Compound B2N070-01, 4-[4-[[2-[2-(5-Ethoxypyridin-3-yl)ethynyl]phenyl]methyl]piperazin-1-yl]-N-(3,3,3-trifluoropropylsulfonyl)benzamide]
ASMS ratio (%) n = 1: 0.0% | ASMS ratio (%) n = 2: 0.0%

CCOc1cccc(-c2ccccc2CN2CCN(c3ccc(C(=O)NS(=O)(=O)CCC(F)(F)F)nn3)CC2)c1 [Compound B2N071-01, 6-[4-[[2-(3-Ethoxyphenyl)phenyl]methyl]piperazin-1-yl]-N-(3,3,3-trifluoropropylsulfonyl)pyridazine-3-carboxamide]
ASMS ratio (%) n = 1: 0.0% | ASMS ratio (%) n = 2: 0.0%

CCOc1cncc(-c2ccccc2CN2CCN(c3ccc(C(=O)NS(=O)(=O)CCC(F)(F)F)nn3)CC2)c1 [Compound B2N072-01, 6-[4-[[2-(5-Ethoxypyridin-3-yl)phenyl]methyl]piperazin-1-yl]-N-(3,3,3-trifluoropropylsulfonyl)pyridazine-3-carboxamide]
ASMS ratio (%) n = 1: 0.0% | ASMS ratio (%) n = 2: 0.1%

CCOc1cccc(-c2ccc(CN3CCN(c4ccc(C(=O)NS(=O)(=O)CCC(F)(F)F)nn4)CC3)cc2C)c1 [Compound B2N073-01, 6-[4-[[4-(3-Ethoxyphenyl)-3-methylphenyl]methyl]piperazin-1-yl]-N-(3,3,3-trifluoropropylsulfonyl)pyridazine-3-carboxamide]
ASMS ratio (%) n = 1: 0.0% | ASMS ratio (%) n = 2: 0.0%

CCOc1cncc(-c2ccc(CN3CCN(c4ccc(C(=O)NS(=O)(=O)CCC(F)(F)F)nn4)CC3)cc2C)c1 [Compound B2N074-01, 6-[4-[[4-(5-Ethoxypyridin-3-yl)-3-methylphenyl]methyl]piperazin-1-yl]-N-(3,3,3-trifluoropropylsulfonyl)pyridazine-3-carboxamide]
ASMS ratio (%) n = 1: 0.0% | ASMS ratio (%) n = 2: 0.0%

CCOc1cncc(-c2ccc(CN3CCN(c4ccc(C(=O)NS(=O)(=O)CCC(F)(F)F)nn4)CC3)c(CC)c2)c1 [Compound B2N076-01, 6-[4-[[4-(5-Ethoxypyridin-3-yl)-2-ethylphenyl]methyl]piperazin-1-yl]-N-(3,3,3-trifluoropropylsulfonyl)pyridazine-3-carboxamide]
ASMS ratio (%) n = 1: 0.0% | ASMS ratio (%) n = 2: 0.0%

CCOc1cccc(-c2ccc(CN3CCN(c4ccc(C(=O)NS(=O)(=O)CCC(F)(F)F)nn4)CC3)cc2F)c1 [Compound B2N077-01, 6-[4-[[4-(3-Ethoxyphenyl)-3-fluorophenyl]methyl]piperazin-1-yl]-N-(3,3,3-trifluoropropylsulfonyl)pyridazine-3-carboxamide]
ASMS ratio (%) n = 1: 0.0% | ASMS ratio (%) n = 2: 0.0%

CCOc1cncc(-c2ccc(CN3CCN(c4ccc(C(=O)NS(=O)(=O)CCC(F)(F)F)nn4)CC3)cc2F)c1 [Compound B2N078-01, 6-[4-[[4-(5-Ethoxypyridin-3-yl)-3-fluorophenyl]methyl]piperazin-1-yl]-N-(3,3,3-trifluoropropylsulfonyl)pyridazine-3-carboxamide]
ASMS ratio (%) n = 1: 0.0% | ASMS ratio (%) n = 2: 0.0%

CCOc1cccc(-c2ccc(CN3CCN(c4ccc(C(=O)NS(=O)(=O)CCC(F)(F)F)nn4)CC3)c(OC)c2)c1 [Compound B2N079-01, 6-[4-[[4-(3-Ethoxyphenyl)-2-methoxyphenyl]methyl]piperazin-1-yl]-N-(3,3,3-trifluoropropylsulfonyl)pyridazine-3-carboxamide]
ASMS ratio (%) n = 1: 0.0% | ASMS ratio (%) n = 2: 0.0%

CCOc1cncc(-c2ccc(CN3CCN(c4ccc(C(=O)NS(=O)(=O)CCC(F)(F)F)nn4)CC3)c(OC)c2)c1 [Compound B2N080-01, 6-[4-[[4-(5-Ethoxypyridin-3-yl)-2-methoxyphenyl]methyl]piperazin-1-yl]-N-(3,3,3-trifluoropropylsulfonyl)pyridazine-3-carboxamide]
ASMS ratio (%) n = 1: 0.0% | ASMS ratio (%) n = 2: 0.0%

CCOc1cccc(-c2cc(CN3CCN(c4ccc(C(=O)NS(=O)(=O)CCC(F)(F)F)nn4)CC3)cc(OCC)c2)c1 [Compound B2N081-01]
ASMS ratio (%) n = 1: 0.0% | ASMS ratio (%) n = 2: 0.0%

CCOc1cncc(-c2cc(CN3CCN(c4ccc(C(=O)NS(=O)(=O)CCC(F)(F)F)nn4)CC3)cc(OCC)c2)c1 [Compound B2N082-01, 6-[4-[[3-Ethoxy-5-(5-ethoxypyridin-3-yl)phenyl]methyl]piperazin-1-yl]-N-(3,3,3-trifluoropropylsulfonyl)pyridazine-3-carboxamide]
ASMS ratio (%) n = 1: 2.5% | ASMS ratio (%) n = 2: 2.8%

CCOc1cccc(-c2cc(CN3CCN(c4ccc(C(=O)NS(=O)(=O)CCC(F)(F)F)nn4)CC3)cc(OC(C)C)c2)c1 [Compound B2N083-01, 6-[4-[[3-(3-Ethoxyphenyl)-5-propan-2-yloxyphenyl]methyl]piperazin-1-yl]-N-(3,3,3-trifluoropropylsulfonyl)pyridazine-3-carboxamide]
ASMS ratio (%) n = 1: 0.0% | ASMS ratio (%) n = 2: 0.0%

CCOc1cncc(-c2cc(CN3CCN(c4ccc(C(=O)NS(=O)(=O)CCC(F)(F)F)nn4)CC3)cc(OC(C)C)c2)c1 [Compound B2N084-01]
ASMS ratio (%) n = 1: 0.0% | ASMS ratio (%) n = 2: 0.0%

CCOc1cccc(-c2cc(OC)c(CN3CCN(c4ccc(C(=O)NS(=O)(=O)CCC(F)(F)F)nn4)CC3)c(OC)c2)c1 [Compound B2N085-01, 6-[4-[[4-(3-Ethoxyphenyl)-2,6-dimethoxyphenyl]methyl]piperazin-1-yl]-N-(3,3,3-trifluoropropylsulfonyl)pyridazine-3-carboxamide]
ASMS ratio (%) n = 1: 0.0% | ASMS ratio (%) n = 2: 0.0%

CCOc1cncc(-c2cc(OC)c(CN3CCN(c4ccc(C(=O)NS(=O)(=O)CCC(F)(F)F)nn4)CC3)c(OC)c2)c1 [Compound B2N086-01, 6-[4-[[4-(5-Ethoxypyridin-3-yl)-2,6-dimethoxyphenyl]methyl]piperazin-1-yl]-N-(3,3,3-trifluoropropylsulfonyl)pyridazine-3-carboxamide]
ASMS ratio (%) n = 1: 0.0% | ASMS ratio (%) n = 2: 0.0%
